Measurements reported in PubChem BioAssay AID1963838 (Molecular Pharmacology Branch, DTP, NCI, 2024).

Tested on: 855422-203-R-J1-PDC complex spheroid viability
Assay: Anticancer human tumor 855422-203-R-J1-PDC patient-derived bladder carcinoma cell line growth inhibition [POLQ]
Conditions: for IC50: curve of first compound; for viability, T/C: stronger effect = lower value; active means viability on the fitted dose curve at most 10% of control; inactive means the rest
Summary of the method: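 Growth inhibition in 3D: complex spheroids (tumor PDC, HUVEC, MSC) treated with POLQ inhibitor combinations; where Cmax unknown, highest tested concentration 10 microM, except SN-38 at 1 microM.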

[1] = second compound 0.0316 µM, first compound 0.0316 µM
[2] = second compound 0.0316 µM, first compound 0.1 µM
[3] = second compound 0.0316 µM, first compound 0.316 µM
[4] = second compound 0.0316 µM, first compound 1 µM
[5] = second compound 0.0316 µM, first compound 3.16 µM
[6] = second compound 0.0316 µM, first compound 10 µM
[7] = second compound 0.1 µM, first compound 0.0316 µM
[8] = second compound 0.1 µM, first compound 0.1 µM
[9] = second compound 0.1 µM, first compound 0.316 µM
[10] = second compound 0.1 µM, first compound 1 µM
[11] = second compound 0.1 µM, first compound 3.16 µM
[12] = second compound 0.1 µM, first compound 10 µM
[13] = second compound 0.316 µM, first compound 0.0316 µM
[14] = second compound 0.316 µM, first compound 0.1 µM
[15] = second compound 0.316 µM, first compound 0.316 µM
[16] = second compound 0.316 µM, first compound 1 µM
[17] = second compound 0.316 µM, first compound 3.16 µM
[18] = second compound 0.316 µM, first compound 10 µM
[19] = second compound 1 µM, first compound 0.0316 µM
[20] = second compound 1 µM, first compound 0.1 µM
[21] = second compound 1 µM, first compound 0.316 µM
[22] = second compound 1 µM, first compound 1 µM
[23] = second compound 1 µM, first compound 3.16 µM
[24] = second compound 1 µM, first compound 10 µM
[25] = second compound 3.16 µM, first compound 0.0316 µM
[26] = second compound 3.16 µM, first compound 0.1 µM
[27] = second compound 3.16 µM, first compound 0.316 µM
[28] = second compound 3.16 µM, first compound 1 µM
[29] = second compound 3.16 µM, first compound 3.16 µM
[30] = second compound 3.16 µM, first compound 10 µM
[31] = second compound 10 µM, first compound 0.0316 µM
[32] = second compound 10 µM, first compound 0.1 µM
[33] = second compound 10 µM, first compound 0.316 µM
[34] = second compound 10 µM, first compound 1 µM
[35] = second compound 10 µM, first compound 3.16 µM
[36] = second compound 10 µM, first compound 10 µM
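Further: spheroids exposed to compounds for seven days before readout.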

C=CC(=O)N1CCN(c2nc(=O)n(-c3c(C)ccnc3C(C)C)c3nc(-c4c(O)cccc4F)c(F)cc23)C(C)C1 (stereo unspecified) + COC1C(OC(N)=O)C(O)C(Oc2ccc3c(O)c(NC(=O)c4ccc(O)c(CC=C(C)C)c4)c(=O)oc3c2C)OC1(C)C
inactive: viability, T/C [1] 110% | viability, T/C [2] 106% | viability, T/C [3] 106% | viability, T/C [4] 111% | viability, T/C [5] 123% | viability, T/C [6] 120% | viability, T/C [7] 95% | viability, T/C [8] 111% | viability, T/C [9] 108% | viability, T/C [10] 123% | viability, T/C [11] 123% | viability, T/C [12] 116% | viability, T/C [13] 111% | viability, T/C [14] 123% | viability, T/C [15] 111% | viability, T/C [16] 114% | viability, T/C [17] 128% | viability, T/C [18] 114% | viability, T/C [19] 119% | viability, T/C [20] 120% | viability, T/C [21] 114% | viability, T/C [22] 119% | viability, T/C [23] 121% | viability, T/C [24] 129% | viability, T/C [25] 116% | viability, T/C [26] 108% | viability, T/C [27] 108% | viability, T/C [28] 113% | viability, T/C [29] 121% | viability, T/C [30] 128% | viability, T/C [31] 109% | viability, T/C [32] 111% | viability, T/C [33] 106% | viability, T/C [34] 103% | viability, T/C [35] 122% | viability, T/C [36] 111%
> 10 µM: IC50 (second compound 0.0316 µM) | IC50 (second compound 0.1 µM) | IC50 (second compound 0.316 µM) | IC50 (second compound 1 µM) | IC50 (second compound 3.16 µM) | IC50 (second compound 10 µM)

CC(C)n1c(=O)n(C)c2cnc3cc(F)c(-c4ccc(OCCCN5CCCCC5)nc4)cc3c21 + COC1C(OC(N)=O)C(O)C(Oc2ccc3c(O)c(NC(=O)c4ccc(O)c(CC=C(C)C)c4)c(=O)oc3c2C)OC1(C)C
> 10 µM: IC50 (second compound 0.0316 µM) | IC50 (second compound 0.1 µM) | IC50 (second compound 0.316 µM) | IC50 (second compound 1 µM) | IC50 (second compound 3.16 µM) | IC50 (second compound 10 µM)
inactive: viability, T/C [1] 97.6% | viability, T/C [2] 92.7% | viability, T/C [3] 89.8% | viability, T/C [4] 89.1% | viability, T/C [5] 84.7% | viability, T/C [6] 70.3% | viability, T/C [7] 84.4% | viability, T/C [8] 110% | viability, T/C [9] 88.1% | viability, T/C [10] 91.9% | viability, T/C [11] 79.6% | viability, T/C [12] 75.3% | viability, T/C [13] 92.6% | viability, T/C [14] 100% | viability, T/C [15] 89.8% | viability, T/C [16] 102% | viability, T/C [17] 87.8% | viability, T/C [18] 65.9% | viability, T/C [19] 104% | viability, T/C [20] 104% | viability, T/C [21] 96.2% | viability, T/C [22] 98.1% | viability, T/C [23] 81.2% | viability, T/C [24] 74% | viability, T/C [25] 106% | viability, T/C [26] 95% | viability, T/C [27] 98.2% | viability, T/C [28] 79.1% | viability, T/C [29] 83.5% | viability, T/C [30] 69.7% | viability, T/C [31] 104% | viability, T/C [32] 92.5% | viability, T/C [33] 93.9% | viability, T/C [34] 98.1% | viability, T/C [35] 83% | viability, T/C [36] 68.7%

CC1COCCN1c1cc(-c2ccnn2C)c2ccnc(-c3ccn[nH]3)c2n1 (stereo unspecified) + COC1C(OC(N)=O)C(O)C(Oc2ccc3c(O)c(NC(=O)c4ccc(O)c(CC=C(C)C)c4)c(=O)oc3c2C)OC1(C)C
0.193 µM: IC50 (second compound 1 µM)
0.183 µM: IC50 (second compound 10 µM)
0.171 µM: IC50 (second compound 0.1 µM)
0.176 µM: IC50 (second compound 0.316 µM)
0.169 µM: IC50 (second compound 0.0316 µM)
inactive: viability, T/C [1] 107% | viability, T/C [2] 71.5% | viability, T/C [3] 24.6% | viability, T/C [4] 9.79% | viability, T/C [7] 108% | viability, T/C [8] 73% | viability, T/C [9] 23.4% | viability, T/C [10] 11.9% | viability, T/C [13] 104% | viability, T/C [14] 74.5% | viability, T/C [15] 24.1% | viability, T/C [16] 13.5% | viability, T/C [19] 104% | viability, T/C [20] 85.4% | viability, T/C [21] 23.1% | viability, T/C [22] 13.3% | viability, T/C [25] 111% | viability, T/C [26] 85% | viability, T/C [27] 22.9% | viability, T/C [31] 118% | viability, T/C [32] 81.5% | viability, T/C [33] 21.1%
0.192 µM: IC50 (second compound 3.16 µM)
active: viability, T/C [5] 8.71% | viability, T/C [6] 8.63% | viability, T/C [11] 9.78% | viability, T/C [12] 9.2% | viability, T/C [17] 11.3% | viability, T/C [18] 6.39% | viability, T/C [23] 8.72% | viability, T/C [24] 7.58% | viability, T/C [28] 11% | viability, T/C [29] 6.98% | viability, T/C [30] 7.28% | viability, T/C [34] 10.7% | viability, T/C [35] 9.81% | viability, T/C [36] 7.1%
